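96-well plates; 48 h exposure; 5 concentrations. Endpoints by linear interpolation between flanking doses. Not reached: highest tested concentration assigned. TGI marks complete inhibition of growth.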 Square brackets hold non-standard residues; d marks the D form. Peptide text beside a SMILES is read from it. Phe(4-NO2) = N[CH](Cc1ccc([N+](=O)[O-])cc1)C(=O)O
What was measured:
Assay in all cases: NCI anticancer screen, dose series, 48 h
OVCAR-8 ovarian = test system: OVCAR-8 ovarian
LOX IMVI melanoma = test system: LOX IMVI melanoma
TK-10 renal = test system: TK-10 renal
SN12C renal = test system: SN12C renal
NCI-H23 lung = test system: NCI-H23 lung
OVCAR-3 ovarian = test system: OVCAR-3 ovarian
SNB-75 CNS = test system: SNB-75 CNS
HS 578T breast = test system: HS 578T breast
RPMI-8226 leukemia = test system: RPMI-8226 leukemia
SF-539 CNS = test system: SF-539 CNS
HOP-92 NSCLC = test system: HOP-92 NSCLC

SMILES	TGI (OVCAR-8 ovarian)	TGI (LOX IMVI melanoma)	TGI (TK-10 renal)	TGI (SN12C renal)	TGI (NCI-H23 lung)	TGI (OVCAR-3 ovarian)	TGI (SNB-75 CNS)	TGI (HS 578T breast)	TGI (RPMI-8226 leukemia)	TGI (SF-539 CNS)	TGI (HOP-92 NSCLC)
CCOC(OCC)[C@H](N)[C@@H](O)[C@@H](O)[C@H]1COC(C)(C)O1	> 100 µM	> 100 µM	> 100 µM	> 100 µM	> 100 µM	> 100 µM	> 100 µM	> 100 µM	> 100 µM	–	–
COC(=O)CCC(NC(=O)C(CCC(=O)OC)NC(=O)C(CCC(=O)OC)NC(=O)C(CCC(=O)OC)NC(=O)C(CCC(=O)OC)NC(=O)C(Cc1ccc([N+](=O)[O-])cc1)NC(=O)C(CCC(=O)OC)NC(=O)C(CCC(=O)OC)NC(=O)C(CCC(=O)OC)NC(=O)C(CCC(=O)OC)NC(=O)C(CCC(=O)OC)NC(C)=O)C(N)=O (stereo not given) (Ac-E(OMe)E(OMe)E(OMe)E(OMe)E(OMe)[Phe(4-NO2)]E(OMe)E(OMe)E(OMe)E(OMe)E(OMe)-NH2; configuration not given here)	> 100 µM	> 100 µM	> 100 µM	> 100 µM	> 100 µM	–	> 100 µM	> 100 µM	> 100 µM	–	–
COc1ccc(OCC(C)(C)O)cc1	> 100 µM	> 100 µM	–	> 100 µM	> 100 µM	> 100 µM	> 86.9 µM	–	> 100 µM	> 100 µM	> 100 µM
CC(c1ccccc1)C(O)S(=O)(=O)O (stereo not given)	> 100 µM	> 100 µM	> 100 µM	> 100 µM	> 100 µM	> 100 µM	> 100 µM	–	> 100 µM	> 100 µM	> 100 µM
O=c1oc2ccccc2n1CCCn1c(=O)oc2ccccc21	> 100 µM	> 100 µM	> 100 µM	> 100 µM	> 100 µM	> 100 µM	> 100 µM	> 100 µM	> 100 µM	> 100 µM	–
CSS(C)(=O)=O	68.8 µM	> 100 µM	46 µM	45.3 µM	50.5 µM	41.6 µM	94.1 µM	> 100 µM	5.36 µM	37 µM	–
CC1=CC(=O)/C(=C/N2C(=O)CNC2=S)C(=O)O1	> 100 µM	> 100 µM	> 100 µM	> 100 µM	> 100 µM	> 100 µM	> 100 µM	–	–	> 100 µM	> 100 µM
Cc1ccc(N2C3=C(CC4=C2CC(C)(C)CC4=O)C(=O)CC(C)(C)C3)cc1	> 100 µM	> 100 µM	> 100 µM	> 100 µM	> 100 µM	> 100 µM	82.6 µM	> 100 µM	> 100 µM	> 100 µM	–
COc1ccc2c(c1)C=C(C(C)(C)C)NS2(=O)=O	> 100 µM	> 100 µM	> 100 µM	> 100 µM	> 100 µM	> 100 µM	> 100 µM	–	–	> 100 µM	> 100 µM
C(#C[C@@]12CCC[C@@H]1N(Cc1ccccc1)CO2)c1ccc2c(c1)OCO2	> 100 µM	–	–	> 100 µM	> 100 µM	> 100 µM	> 100 µM	> 100 µM	> 100 µM	> 100 µM	–
O=C(NNC(=O)c1c(Cl)c(Cl)c(Cl)c(Cl)c1-c1nc2ccccc2[nH]1)c1ccc(Cl)cc1	> 100 µM	> 100 µM	–	> 100 µM	> 100 µM	> 100 µM	> 100 µM	–	98.5 µM	> 100 µM	84.7 µM
COc1ccc(NS(=O)(=O)c2ccc(N=C3C=C(Nc4ccc(S(=O)(=O)Nc5ccc(OC)nn5)cc4)C(=O)c4ccccc43)cc2)nn1	34.8 µM	30.4 µM	40 µM	38.6 µM	29.7 µM	44.8 µM	35.1 µM	–	> 100 µM	31.6 µM	88.8 µM
COc1ccc2c(c1)C(=O)[C@@](Nc1ccc(C=O)cc1)(OC)[C@@](OC)(c1ccc([N+](=O)[O-])cc1)O2	> 10 µM	> 10 µM	> 10 µM	> 10 µM	> 10 µM	> 10 µM	> 10 µM	> 10 µM	> 10 µM	> 10 µM	–
CCCCC(N)CSSCC(N)CCCC (stereo not given)	> 100 µM	32.1 µM	> 100 µM	36.1 µM	55.4 µM	47.2 µM	> 100 µM	–	61.5 µM	47.8 µM	–
CC(=O)OCCCCn1cnc2c(Cl)nc(Nc3ccccc3)nc21	> 100 µM	> 100 µM	> 100 µM	> 100 µM	> 100 µM	> 100 µM	–	> 100 µM	> 100 µM	> 100 µM	–
Cc1ccc2c(=O)c(C(=O)NNC(=S)NC3CCCCC3)c[nH]c2n1	> 100 µM	> 100 µM	> 100 µM	> 100 µM	> 100 µM	> 100 µM	–	> 100 µM	> 100 µM	–	–
Nc1nc(Cc2ccccc2)nc(Cc2ccccc2)c1-c1ccccc1	> 100 µM	51.4 µM	> 100 µM	> 100 µM	45.2 µM	37.2 µM	–	> 100 µM	–	–	59.6 µM

Reference: PubChem BioAssay (NCI)
